Patent publication US12077503B2, “Substituted cyclic amides and their use as herbicides” (FMC CORPORATION, priority 2015, dated 2024)

Columns and labels:
Type in all cases: in vivo
corn (Zea mays) [1] = assay: Test G Pre-Emergence Protocol; details: Zea mays, pre-emergence, 312 h, evaluated after 13 days; for plant injury at 15.625 g/ha: 15.625 g ai/ha; for plant injury at 15.625 g/ha / plant injury at 250 g/ha: read-out: Corn damage rating (100=total damage to plant; 0=no damage to plant); for plant injury at 62.5 g/ha: 62.5 g ai/ha, 100=total damage to plant, 0=no damage to plant, read-out: plant damage rating, Corn; for plant injury at 250 g/ha: 250 g ai/ha
Outline: (§1)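 Test compound in 0.5% Tween 20 acetone/water (50:50) was applied at three rates (15.625, 62.5, 250 g/ha) to soil sown one day earlier. After 13 days plants were scored for injury, where 0 means unaffected and 100 means completely damaged.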

[2] = tested on: velvetleaf (Abutilon theophrasti); assay: Test G Pre-Emergence Protocol; details: Abutilon theophrasti, pre-emergence, 312 h, evaluated after 13 days; for pest or weed control at 15.625 g/ha: 15.625 g ai/ha; for pest or weed control at 15.625 g/ha / pest or weed control at 250 g/ha: read-out: Velvetleaf damage rating (100=total damage to plant; 0=no damage to plant); for pest or weed control at 62.5 g/ha: 62.5 g ai/ha, 100=total damage to plant, 0=no damage to plant, read-out: plant damage rating, Velvetleaf; for pest or weed control at 250 g/ha: 250 g ai/ha
Outline: as §1

[3] = tested on: ivy-leaved morning glory (Ipomoea hederacea); assay: Test G Pre-Emergence Protocol; details: Ipomoea, pre-emergence, 312 h, evaluated after 13 days; for pest or weed control at 15.625 g/ha: 15.625 g ai/ha, read-out: Morning-glory, Ivy-leaved damage rating (100=total damage to plant; 0=no damage to plant); for pest or weed control at 62.5 g/ha: 62.5 g ai/ha, 100=total damage to plant, 0=no damage to plant, read-out: plant damage rating, Morningglory, Ivy-leaved; for pest or weed control at 250 g/ha: 250 g ai/ha, read-out: Morningglory, Ivy-leaved damage rating (100=total damage to plant; 0=no damage to plant)
Outline: as §1

[4] = tested on: giant foxtail (Setaria faberi); assay: Test G Pre-Emergence Protocol; details: Setaria faberi, pre-emergence, 312 h, evaluated after 13 days; for pest or weed control at 15.625 g/ha: 15.625 g ai/ha; for pest or weed control at 15.625 g/ha / pest or weed control at 250 g/ha: read-out: Foxtail, Giant damage rating (100=total damage to plant; 0=no damage to plant); for pest or weed control at 62.5 g/ha: 62.5 g ai/ha, 100=total damage to plant, 0=no damage to plant, read-out: plant damage rating, Foxtail, Giant; for pest or weed control at 250 g/ha: 250 g ai/ha
Outline: as §1

[5] = tested on: redroot pigweed (Amaranthus retroflexus); assay: Test G Pre-Emergence Protocol; details: Amaranthus retroflexus, pre-emergence, 312 h, evaluated after 13 days; for pest or weed control at 15.625 g/ha: 15.625 g ai/ha; for pest or weed control at 15.625 g/ha / pest or weed control at 250 g/ha: read-out: Pigweed, Redroot damage rating (100=total damage to plant; 0=no damage to plant); for pest or weed control at 62.5 g/ha: 62.5 g ai/ha, 100=total damage to plant, 0=no damage to plant, read-out: plant damage rating, Pigweed, Redroot; for pest or weed control at 250 g/ha: 250 g ai/ha
Outline: as §1

[6] = tested on: barnyardgrass (Echinochloa crus-galli); assay: Test G Pre-Emergence Protocol; details: Echinochloa crus-galli, pre-emergence, 312 h, evaluated after 13 days; for pest or weed control at 15.625 g/ha: 15.625 g ai/ha, read-out: Barnyard grass damage rating (100=total damage to plant; 0=no damage to plant); for pest or weed control at 62.5 g/ha: 62.5 g ai/ha, 100=total damage to plant, 0=no damage to plant, read-out: plant damage rating, Barnyardgrass; for pest or weed control at 250 g/ha: 250 g ai/ha, read-out: Barnyardgrass damage rating (100=total damage to plant; 0=no damage to plant)
Outline: as §1

corn (Zea mays) [7] = assay: Test G Post-Emergence Protocol; details: Zea mays, post-emergence, 312 h; for plant injury at 15.625 g/ha: 15.625 g ai/ha, evaluated after 13 days (100=total damage to plant; 0=no damage to plant), read-out: Corn damage rating; for plant injury at 62.5 g/ha: 62.5 g ai/ha, read-out: Corn damage rating (100=total damage to plant; 0=no damage to plant); for plant injury at 62.5 g/ha / plant injury at 250 g/ha: evaluated after 13 days; for plant injury at 250 g/ha: 250 g ai/ha, read-out: damage to plant, Corn (100=total damage to plant; 0=no damage to plant)
Outline: (§2)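 Eight days post-sowing, plants received a spray of test compound (acetone/water 50:50, 0.5% Tween 20) at 15.625, 62.5 or 250 g/ha. Glasshouse regime thereafter: 24/16 °C, 14 h light, 65% humidity. Assessment after 13 days on a 0–100 damage scale.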

[8] = tested on: velvetleaf (Abutilon theophrasti); assay: Test G Post-Emergence Protocol; details: Abutilon theophrasti, post-emergence, 312 h; for pest or weed control at 15.625 g/ha: 15.625 g ai/ha, evaluated after 13 days (100=total damage to plant; 0=no damage to plant), read-out: Velvetleaf damage rating; for pest or weed control at 62.5 g/ha: 62.5 g ai/ha, read-out: Velvetleaf damage rating (100=total damage to plant; 0=no damage to plant); for pest or weed control at 62.5 g/ha / pest or weed control at 250 g/ha: evaluated after 13 days; for pest or weed control at 250 g/ha: 250 g ai/ha, read-out: damage to plant, Velvetleaf (100=total damage to plant; 0=no damage to plant)
Outline: as §2

[9] = tested on: ivy-leaved morning glory (Ipomoea hederacea); assay: Test G Post-Emergence Protocol; details: Ipomoea, post-emergence, 312 h; for pest or weed control at 15.625 g/ha: 15.625 g ai/ha, evaluated after 13 days (100=total damage to plant; 0=no damage to plant), read-out: Morningglory, Ivy-leaved damage rating; for pest or weed control at 62.5 g/ha: 62.5 g ai/ha, read-out: Morningglory, Ivy-leaved damage rating (100=total damage to plant; 0=no damage to plant); for pest or weed control at 62.5 g/ha / pest or weed control at 250 g/ha: evaluated after 13 days; for pest or weed control at 250 g/ha: 250 g ai/ha, read-out: damage to plant, Morningglory, Ivy-leaved (100=total damage to plant; 0=no damage to plant)
Outline: as §2

[10] = tested on: giant foxtail (Setaria faberi); assay: Test G Post-Emergence Protocol; details: Setaria faberi, post-emergence, 312 h; for pest or weed control at 15.625 g/ha: 15.625 g ai/ha, evaluated after 13 days (100=total damage to plant; 0=no damage to plant), read-out: Foxtail, Giant damage rating; for pest or weed control at 62.5 g/ha: 62.5 g ai/ha, read-out: Foxtail, Giant damage rating (100=total damage to plant; 0=no damage to plant); for pest or weed control at 62.5 g/ha / pest or weed control at 250 g/ha: evaluated after 13 days; for pest or weed control at 250 g/ha: 250 g ai/ha, read-out: damage to plant, Foxtail, Giant (100=total damage to plant; 0=no damage to plant)
Outline: as §2

[11] = tested on: redroot pigweed (Amaranthus retroflexus); assay: Test G Post-Emergence Protocol; details: Amaranthus retroflexus, post-emergence, 312 h; for pest or weed control at 15.625 g/ha: 15.625 g ai/ha, evaluated after 13 days (100=total damage to plant; 0=no damage to plant), read-out: Pigweed, Redroot damage rating; for pest or weed control at 62.5 g/ha: 62.5 g ai/ha, read-out: Pigweed, Redroot damage rating (100=total damage to plant; 0=no damage to plant); for pest or weed control at 62.5 g/ha / pest or weed control at 250 g/ha: evaluated after 13 days; for pest or weed control at 250 g/ha: 250 g ai/ha, read-out: damage to plant, Pigweed, Redroot (100=total damage to plant; 0=no damage to plant)
Outline: as §2

[12] = tested on: barnyardgrass (Echinochloa crus-galli); assay: Test G Post-Emergence Protocol; details: Echinochloa crus-galli, post-emergence, 312 h; for pest or weed control at 15.625 g/ha: 15.625 g ai/ha, evaluated after 13 days (100=total damage to plant; 0=no damage to plant), read-out: Barnyardgrass damage rating; for pest or weed control at 62.5 g/ha: 62.5 g ai/ha, read-out: Barnyardgrass damage rating (100=total damage to plant; 0=no damage to plant); for pest or weed control at 62.5 g/ha / pest or weed control at 250 g/ha: evaluated after 13 days; for pest or weed control at 250 g/ha: 250 g ai/ha, read-out: damage to plant, Barnyardgrass (100=total damage to plant; 0=no damage to plant)
Outline: as §2

For `C=CCc1c(Cl)cccc1NC(=O)[C@H]1C(=O)N(C)C[C@H]1c1ccc(C(F)(F)F)cc1` (racemic) [Compound 1439], the plant injury at 15.625 g/ha (corn (Zea mays) [1]) was 0%, the plant injury at 62.5 g/ha (corn (Zea mays) [1]) was 0% and the plant injury at 250 g/ha (corn (Zea mays) [1]) was 0%. The pest or weed control at 15.625 g/ha [2] was 0%, the pest or weed control at 62.5 g/ha [2] was 0% and the pest or weed control at 250 g/ha [2] was 0%. For the same molecule, the pest or weed control at 15.625 g/ha [3] was 0%, the pest or weed control at 62.5 g/ha [3] was 0% and the pest or weed control at 250 g/ha [3] was 0%. The pest or weed control at 15.625 g/ha [4] was 0%, the pest or weed control at 62.5 g/ha [4] was 0% and the pest or weed control at 250 g/ha [4] was 50%. It also gave a pest or weed control at 15.625 g/ha [5] of 0%, a pest or weed control at 62.5 g/ha [5] of 0% and a pest or weed control at 250 g/ha [5] of 0%. It also gave a pest or weed control at 15.625 g/ha [6] of 0%, a pest or weed control at 62.5 g/ha [6] of 0% and a pest or weed control at 250 g/ha [6] of 40%. It also gave a plant injury at 15.625 g/ha (corn (Zea mays) [7]) of 10%, a plant injury at 62.5 g/ha (corn (Zea mays) [7]) of 10% and a plant injury at 250 g/ha (corn (Zea mays) [7]) of 10%. It also gave a pest or weed control at 15.625 g/ha [8] of 0%, a pest or weed control at 62.5 g/ha [8] of 0% and a pest or weed control at 250 g/ha [8] of 0%. For the same molecule, the pest or weed control at 15.625 g/ha [9] was 0%, the pest or weed control at 62.5 g/ha [9] was 0% and the pest or weed control at 250 g/ha [9] was 0%. The pest or weed control at 15.625 g/ha [10] was 0%, the pest or weed control at 62.5 g/ha [10] was 20% and the pest or weed control at 250 g/ha [10] was 60%. The pest or weed control at 15.625 g/ha [11] was 0%, the pest or weed control at 62.5 g/ha [11] was 0% and the pest or weed control at 250 g/ha [11] was 40%. For the same molecule, the pest or weed control at 15.625 g/ha [12] was 0%, the pest or weed control at 62.5 g/ha [12] was 0% and the pest or weed control at 250 g/ha [12] was 10%.
Work on `CN1C[C@H](c2ccc(C(F)(F)F)cc2)[C@@H](C(=O)Nc2ccc(F)cn2)C1=O` (racemic) [Compound 1450] yielded a plant injury at 15.625 g/ha (corn (Zea mays) [1]) of 0%, a plant injury at 62.5 g/ha (corn (Zea mays) [1]) of 0% and a plant injury at 250 g/ha (corn (Zea mays) [1]) of 0%. It also gave a pest or weed control at 15.625 g/ha [2] of 0%, a pest or weed control at 62.5 g/ha [2] of 0% and a pest or weed control at 250 g/ha [2] of 0%. For the same molecule, the pest or weed control at 15.625 g/ha [3] was 0%, the pest or weed control at 62.5 g/ha [3] was 0% and the pest or weed control at 250 g/ha [3] was 0%. It also gave a pest or weed control at 15.625 g/ha [4] of 40%, a pest or weed control at 62.5 g/ha [4] of 70% and a pest or weed control at 250 g/ha [4] of 90%. The pest or weed control at 15.625 g/ha [5] was 0%, the pest or weed control at 62.5 g/ha [5] was 0% and the pest or weed control at 250 g/ha [5] was 80%. For the same molecule, the pest or weed control at 15.625 g/ha [6] was 10%, the pest or weed control at 62.5 g/ha [6] was 30% and the pest or weed control at 250 g/ha [6] was 70%. For the same molecule, the plant injury at 15.625 g/ha (corn (Zea mays) [7]) was 0%, the plant injury at 62.5 g/ha (corn (Zea mays) [7]) was 10% and the plant injury at 250 g/ha (corn (Zea mays) [7]) was 10%. It also gave a pest or weed control at 15.625 g/ha [8] of 0%, a pest or weed control at 62.5 g/ha [8] of 0% and a pest or weed control at 250 g/ha [8] of 0%. It also gave a pest or weed control at 15.625 g/ha [9] of 0%, a pest or weed control at 62.5 g/ha [9] of 10% and a pest or weed control at 250 g/ha [9] of 20%. It also gave a pest or weed control at 15.625 g/ha [10] of 0%, a pest or weed control at 62.5 g/ha [10] of 30% and a pest or weed control at 250 g/ha [10] of 60%. It also gave a pest or weed control at 15.625 g/ha [11] of 0%, a pest or weed control at 62.5 g/ha [11] of 0% and a pest or weed control at 250 g/ha [11] of 30%. It also gave a pest or weed control at 15.625 g/ha [12] of 0%, a pest or weed control at 62.5 g/ha [12] of 10% and a pest or weed control at 250 g/ha [12] of 20%.
